Laboratory results as given in PMC2994217 (British Journal of Cancer, 2010).
Like-named read-outs stand apart in the source and are kept apart here.

How the values were obtained:
[1] = Pharmacokinetics of sirolimus in blood (LC/MS/MS, non-compartmental); type: in vivo, patients; conditions: for Cmax / AUC(0-t) / half-life: human, whole blood; for half-life: read-out: t ½ (converted)
Excerpt: (§1) A paired t-test on log-transformed values was used to calculate changes in AUC, Cmax and t1/2. A P-value ⩽0.05 was considered significant.

[2] = oral
Description: Patients were initially treated in cohorts of six per dose level. […] Both drugs were administered orally. […] (Figure 1) The duration of one cycle was 28 days.
Toxicity was evaluated according to the common toxicity criteria for adverse events (AEs) (CTCAEv3.0).

[3] = no reference given, cited from earlier work
[4] = Pharmacokinetics of sorafenib in plasma (LC/MS/MS, non-compartmental); type: in vivo, patients; conditions: for Cmax: human, plasma
Excerpt: as §1

[5] = im, 1 mg, DL IM, sor 400 mg b.i.d., sir 1 mg q.d., cycle 1 day 1, single-dose sir, geometric mean (95% CI), n=3
[6] = im, DL IM, sor 400 mg b.i.d., sir 1 mg q.d., cycle 1 day 16, continuous dosing sor on single-dose sir, geometric mean (95% CI), n=3
[7] = oral, 1 mg, DL 0, sor 200 mg b.i.d., sir 1 mg q.d., cycle 1 day 1, single-dose sir, geometric mean (95% CI), n=6
[8] = oral, 2 mg, DL 1, Sor 200 mg b.i.d., sir 2 mg q.d., cycle 1 day 1, single-dose sir, geometric mean (95% CI), n=6
[9] = oral, DL 0, sor 200 mg b.i.d., sir 1 mg q.d., cycle 1 day 16, continuous dosing sor on single-dose sir, geometric mean (95% CI), n=6
[10] = oral, DL 1, Sor 200 mg b.i.d., sir 2 mg q.d., cycle 1 day 16, continuous dosing sor on single-dose sir, geometric mean (95% CI), n=6

CO[C@H]1C[C@@H]2CC[C@@H](C)[C@@](O)(O2)C(=O)C(=O)N2CCCC[C@H]2C(=O)O[C@H]([C@H](C)C[C@@H]2CC[C@@H](O)[C@H](OC)C2)CC(=O)[C@H](C)/C=C(\C)[C@@H](O)[C@@H](OC)C(=O)[C@H](C)C[C@H](C)/C=C/C=C/C=C/1C [sirolimus]
change in mean AUC(0−96 h) of sirolimus ([1]; DL 0, simultaneous administration of both drugs, P=0.955): no change | average reduction of Cmax of sirolimus ([1]; DL 0, non-significant, P=0.515): 18% | mean decrease of Cmax of sirolimus ([1]; DL 1, pre-treatment with 200 mg b.i.d. sorafenib, P=0.006): 55% | change of mean terminal half-life of sirolimus ([1]; DL 1, pre-treatment with 200 mg b.i.d. sorafenib, P=0.66): remained unchanged | decrease of AUC(0−96 h) of sirolimus ([1]; DL 1, pre-treatment with 200 mg b.i.d. sorafenib, non-significant, P=0.125): 37% | average decrease of Cmax of sirolimus ([1]; DLim, P=0.027): 55% | average decrease of AUC(0−96 h) of sirolimus ([1]; DLim, P=0.363): 25% | Cmax [1, 5]: 7.99 ng/mL | AUC(0-t) ([1]; im, 1 mg, DL IM, sor 400 mg b.i.d., sir 1 mg q.d., cycle 1 day 1, single-dose sir, geometric mean (95% CI), n=3, read-out: AUC(0–96 h)): 139 ng·h/mL | half-life [1, 5]: 38.3 h | AUC(0-t) ([1]; im, AUC(0–12 h), DL IM, sor 400 mg b.i.d., sir 1 mg q.d., cycle 2 day 1, continuous sor on continuous sir, geometric mean (95% CI), n=2): 101 ng·h/mL | AUC(0-t) ([1]; im, AUC(0–12 h), DL IM, sor 400 mg b.i.d., sir 1 mg q.d., cycle 2 day 15, continuous sor on continuous sir, n=2): 113 ng·h/mL | Cmax [1, 6]: 3.62 ng/mL | AUC(0-t) ([1]; im, DL IM, sor 400 mg b.i.d., sir 1 mg q.d., cycle 1 day 16, continuous dosing sor on single-dose sir, geometric mean (95% CI), n=3, read-out: AUC(0–96 h)): 104 ng·h/mL | half-life [1, 6]: 32.9 h | Cmax ([1]; im, DL IM, sor 400 mg b.i.d., sir 1 mg q.d., cycle 2 day 1, continuous sor on continuous sir, geometric mean (95% CI), n=2): 11.2 ng/mL | Cmax ([1]; im, DL IM, sor 400 mg b.i.d., sir 1 mg q.d., cycle 2 day 15, continuous sor on continuous sir, geometric mean (95% CI), n=2): 13.7 ng/mL | Cmax [1, 7]: 3.81 ng/mL | AUC(0-t) ([1]; oral, 1 mg, DL 0, sor 200 mg b.i.d., sir 1 mg q.d., cycle 1 day 1, single-dose sir, geometric mean (95% CI), n=6, read-out: AUC(0–96 h)): 91.1 ng·h/mL | half-life [1, 7]: 45.5 h | Cmax [1, 8]: 5.74 ng/mL | AUC(0-t) ([1]; oral, 2 mg, DL 1, Sor 200 mg b.i.d., sir 2 mg q.d., cycle 1 day 1, single-dose sir, geometric mean (95% CI), n=6, read-out: AUC(0–96 h)): 124 ng·h/mL | half-life [1, 8]: 50.5 h | AUC(0-t) ([1]; oral, AUC(0–12 h), DL 0, sor 200 mg b.i.d., sir 1 mg q.d., cycle 2 day 1, continuous sor on continuous sir, geometric mean (95% CI), n=6): 59.4 ng·h/mL | AUC(0-t) ([1]; oral, AUC(0–12 h), DL 0, sor 200 mg b.i.d., sir 1 mg q.d., cycle 2 day 15, continuous sor on continuous sir, geometric mean (95% CI), n=6): 57.8 ng·h/mL | AUC(0-t) ([1]; oral, AUC(0–12 h), DL 1, Sor 200 mg b.i.d., sir 2 mg q.d., cycle 2 day 1, continuous sor on continuous sir, geometric mean (95% CI), n=4): 88.2 ng·h/mL | AUC(0-t) ([1]; oral, AUC(0–12 h), DL 1, Sor 200 mg b.i.d., sir 2 mg q.d., cycle 2 day 15, continuous sor on continuous sir, n=1): 84.6 ng·h/mL | Cmax [1, 9]: 3.14 ng/mL | AUC(0-t) ([1]; oral, DL 0, sor 200 mg b.i.d., sir 1 mg q.d., cycle 1 day 16, continuous dosing sor on single-dose sir, geometric mean (95% CI), n=6, read-out: AUC(0–96 h)): 91.7 ng·h/mL | half-life [1, 9]: 56.2 h | Cmax ([1]; oral, DL 0, sor 200 mg b.i.d., sir 1 mg q.d., cycle 2 day 1, continuous sor on continuous sir, geometric mean (95% CI), n=6): 6.3 ng/mL | Cmax ([1]; oral, DL 0, sor 200 mg b.i.d., sir 1 mg q.d., cycle 2 day 15, continuous sor on continuous sir, geometric mean (95% CI), n=6): 6.36 ng/mL | Cmax [1, 10]: 2.6 ng/mL | AUC(0-t) ([1]; oral, DL 1, Sor 200 mg b.i.d., sir 2 mg q.d., cycle 1 day 16, continuous dosing sor on single-dose sir, geometric mean (95% CI), n=6, read-out: AUC(0–96 h)): 78.2 ng·h/mL | half-life [1, 10]: 52.5 h | Cmax ([1]; oral, DL 1, Sor 200 mg b.i.d., sir 2 mg q.d., cycle 2 day 1, continuous sor on continuous sir, geometric mean (95% CI), n=5): 10 ng/mL | Cmax ([1]; oral, DL 1, Sor 200 mg b.i.d., sir 2 mg q.d., cycle 2 day 15, continuous sor on continuous sir, n=2): 17.6 ng/mL | effect of sorafenib on AUC(0−96) and Cmax of sirolimus ([1]; overall statement of abstract): reduced | MTD of the combination, sirolimus dose ([2]; combined with sorafenib 200 mg b.i.d.): 1 mg q.d. | time until mean steady-state concentrations are achieved [3]: 5 to 7 days | terminal half-life ([3]; stable renal transplant recipients): 62 ± 12 h

CNC(=O)c1cc(Oc2ccc(NC(=O)Nc3ccc(Cl)c(C(F)(F)F)c3)cc2)ccn1 [sorafenib]
AUC(0–12 h) ([4]; DL 1, Sor 200 mg b.i.d., sir 2 mg q.d, cycle 2 day 1, continuous sir on continuous sor, geometric mean (95% CI), n=4): 39.3 (21–74) (n=4) mg h l^−1 | mean decrease in AUC(0−12 h) of sorafenib ([4]; DLim, 1 mg sirolimus with 400 mg b.i.d. sorafenib, non-significant, P=0.14): 15% | mean decrease in Cmax of sorafenib ([4]; DLim, 1 mg sirolimus with 400 mg b.i.d. sorafenib, non-significant, P=0.57): 8% | Cmax ([4]; im, 400 mg b.i.d., DL IM, Sor 400 mg b.i.d., sir 1 mg q.d., cycle 1 day 15, continuous dosing sor, geometric mean (95% CI), n=4): 13000 ng/mL | Cmax ([4]; im, DL IM, Sor 400 mg b.i.d., sir 1 mg q.d., cycle 1 day 16, single-dose sir on continuous dosing sor, geometric mean (95% CI), n=4): 11900 ng/mL | Cmax ([4]; im, DL IM, Sor 400 mg b.i.d., sir 1 mg q.d., cycle 2 day 1, continuous sir on continuous sor, geometric mean (95% CI), n=4): 6640 ng/mL | Cmax ([4]; im, DL IM, Sor 400 mg b.i.d., sir 1 mg q.d., cycle 2 day 15, continuous sir on continuous sor, geometric mean (95% CI), n=2): 5550 ng/mL | Cmax ([4]; oral, 200 mg b.i.d., DL 0, Sor 200 mg b.i.d., sir 1 mg q.d., cycle 1 day 15, continuous dosing sor, geometric mean (95% CI), n=6): 7590 ng/mL | Cmax ([4]; oral, DL 0, Sor 200 mg b.i.d., sir 1 mg q.d., cycle 2 day 1, continuous sir on continuous sor, geometric mean (95% CI), n=6): 7120 ng/mL | Cmax ([4]; oral, DL 0, Sor 200 mg b.i.d., sir 1 mg q.d., cycle 2 day 15, continuous sir on continuous sor, geometric mean (95% CI), n=6): 7320 ng/mL | Cmax ([4]; oral, DL 1, Sor 200 mg b.i.d., sir 2 mg q.d, cycle 2 day 1, continuous sir on continuous sor, geometric mean (95% CI), n=4): 5150 ng/mL | effect of sirolimus on the PK of sorafenib ([4]; overall statement of abstract): did not change | influence of sirolimus on AUC(0−12 h) of sorafenib ([4]; single oral doses of 1 mg or 2 mg sirolimus, sorafenib 200 mg b.i.d. multiple dosing, P=0.67): did not influence | influence of sirolimus on Cmax of sorafenib ([4]; single oral doses of 1 mg or 2 mg sirolimus, sorafenib 200 mg b.i.d. multiple dosing, P=0.96): did not influence | MTD of the combination, sorafenib dose ([2]; combined with sirolimus 1 mg q.d.): 200 mg b.i.d. | elimination half-life [3]: 25 to 48 h
